In paper PMC9763021, “Comprehensive Assessment of Biomolecular Interactions of Morpholine-Based Mixed Ligand Cu(II) and Zn(II) Complexes of 2,2′-Bipyridine as Potential Anticancer and SARS-CoV-2 Agents: A Synergistic Experimental and Structure-Based Virtual Screening” (Bioinorganic Chemistry and Applications, 2022):

Legend:
Mucor indicus = assay: Agar disc diffusion, strain J; format: cell-based; set-up: (inhibition %): concentration or dose not given beside the values; details: for diameter of the clear zone inhibition: control = 6 mm
Protocol: (§1) In-vitro antimicrobial properties were evaluated for all samples by the agar disc diffusion method towards different fungal and bacterial strains. Additionally, the reported inhibition zone values were comparatively analyzed with the standard antifungal drugs ketoconazole and amphotericin B as well as the standard antibiotic medications streptomycin and amikacin.
(§2) The current research has a curious focus on the in vitro antimicrobial properties of biological systems because these studies are crucial for developing effective antibacterial and antifungal medications. […] It can also be spelled out based on the chelation theory proposed by Overtone and Tweedy. Chelation theory points out that the partial exchanging of the positive charge of the metal center with donor moieties, and overlap of the ligand orbitals will reduce the greater degree of the metal ion's polarity, which ultimately rises the delocalization of π and d electrons over the full chelated ring system. By raising the size of the metal ion due to the retarding of polarization, chelation may also enhance the complexes' lipophilic characteristics, which further stimulate the lipid membrane permeability and break down the bacteria' enzymes responsible for cell wall formation, therefore slowing down the regular cell processes. By preventing the production of cell walls/proteins/DNA, including by obstructing folate metabolism and the cytoplasmic membrane, antimicrobial drugs frequently either fully eliminate microbes or only prevent their cell growth. Additionally, the samples' mode of action may be employed in disrupting the cell's respiration process by forming an H-bond during the morpholine-fused iminic group coordinated with the active metal center of its components, inhibiting proliferation of the cell. […] The difference in the antimicrobial efficacy of some of the compounds towards various microorganisms influences on the impermeability of the cells of the germs or the diversity of ribosomes of the microbes. The % of the inhibition of all substances is estimated from (45) (Table 9).
(§3) (A, B, C, D, and E are represented as gram negative bacteria species Escherichia coli, Salmonella enteric serovar typhi, Salmonella enteric serovar typhi, Pseudomonas aeruginosa, and Shigella flexneri, respectively. F & G are denoted as gram positive bacteria species Staphylococcus aureus and Bacillus cereus. H, I, and J are represented as fungal strains Aspergillus niger, Candida albicans, and Mucor indicus. Standard drugs for bacterial strains: Amikacin & Streptomycin Standard drugs for fungal strains: Ketoconazole and Amphotericin B. [Control (DMSO) = 6 mm].(44) Inhibition %=T–C/T×100, where T and C are represented as the diameter of microbial growth of the sample plates and the control plate (6 mm), respectively. Error limits ±2.5–5.0% (P ≤ 0.05).

Aspergillus niger = assay: Agar disc diffusion, strain H; format: cell-based; set-up: (inhibition %): concentration or dose not given beside the values; details: for diameter of the clear zone inhibition: control = 6 mm
Protocol: as §1, §2, §3

[1] = tested on: ethidium bromide bound DNA (CT-DNA); assay: Ethidium bromide-DNA fluorescence quenching (emission titration); format: binding, calf thymus; details: for Scatchard analysis KSA / Scatchard analysis n / LWB method KLB: DNA; for Kass (DNA), SV method II / KSV (DNA), SV method I: EB-DNA; for KSV (DNA), SV method I: 610 nm; for Kapp: KEB = 10^7 M^−1 at 50 μM EB; for Kq (DNA), SV method I: Kq=KSV/τ0, τ0 = 10^−8 S; for LWB method KLB: Lineweaver–Burk; for P (DNA), ratio of fluorescence quantum efficiency: intercept of F/F0 vs 1/[DNA]; for n (DNA), SV method II: number of binding sites; for ∆Gb° (DNA), SV method II: –RT lnKass, 298 K
Protocol: The experiment was performed in the 200 to 800 nm region. This is supporting evidence for the complexes' manner of deoxyribonucleic acid binding. When DNA (200 μM) was present or absent, we carefully monitored the intensity variations between 610 nm and 510 nm during the initial emission and excitation of EB [6, 28, 37]. Similarly, emission titrations for BSA interaction with different concentrations between 2.5 μM and 25 μM for all substances were conducted in a Tris-HCl buffer solution (pH: 7.4) between the regions of 300 nm and 400 nm.
Emission titration is a more sensitive approach to examining the binding tendency between chemical substances and biomolecules. The emission measurements are extensively supported to scrutinize the interacting modes between compounds and deoxyribonucleic acid. In the presence of deoxyribonucleic acid (240 μM) in a Tris-HCl buffer solution (pH: 7.2) at room temperature, none of the test compounds emitted fluorescence. The titrations were also executed with the EB molecule, which is also a comparatively low fluorescence emission in Tris-HCl buffer solution (pH: 7.2) in the free state. […] In the investigation, the addition of sample concentrations (0–240 μM) to the solution of DNA-EB results in a notable reduction in the emission intensity at 610 nm (Figure 5 and Table 4). As a result of intense intercalation, the complexes displace the EB in the DNA-EB adduct, causing the emission intensity to drop. The photoelectron shift from the DNA's guanine base to the excited states may be the cause of the frequency of quenching in the emission of chemicals by DNA. Therefore, EB can be utilized as a fluorescent probing agent in the competitive binding experiment.
K SV is denoted as Stern–Volmer binding constant; Kass is represented as association binding constant; Kapp is represented as apparent binding constant, Kapp=KEB[EB]/[compound]=500/[compound], KEB = 10^7 M^−1 at the concentration of 50 μM EB; Gibb's free energy change ΔGb°=–RT lnKass; Kq is represented as bimolecular quenching rate constant/Stern–Volmer dynamic quenching rate constant (Kq=KSV/τ0), average life time of the biomolecular quenching in the absence of a quencher (τ0) = 10^−8 S; Gibb's free energy change ΔGb°=–RT lnKass (where R = […], T = 298 K); KLB is represented as Lineweaver–Burk (LWB) binding constant; KSA is represented as Scatchard association binding constant; Kapp is denoted as apparent binding constant; n is the number of binding sites; P is a ratio of fluorescence quantum efficiency of DNA bound and free complex (P=ɸb/ɸf), which is obtained as intercept from plot F/F0 vs. 1/[DNA], Error limit is ± 2.5% (P < 0.025).(12) Fcorr=Fobs×e^Aex×dex+Aem×dem/2=Fobs×e^Aex+Aem/2, where Fcorr and Fobs are represented as the IFE-corrected fluorescence and observed (uncorrected) emission intensities, respectively. dex and dem are denoted as the cuvette path lengths in the excitation and emission directions, respectively. Aex and Aem are represented as the change in absorbance at the excitation and fluorescence wavelengths, respectively.(13) F0 /F=1+KSVQ=1+Kq τ0, where [Q] is represented as the sample concentration, the emission intensities F0 and F of DNA/BSA in the absence and presence of the quencher (sample), respectively.(14) F0 /F−1=F0−F/F=KSVQlogF0−F/F=logKass+n logQ, (15) KEBEB=Kappcompound, (16) 1/F0−F=1/F0 KLBQ+1/F0 , (17) γ/CF =KSCn−γ, where γ = [(F0 − F)/F0], and CF is denoted as the concentration of sample alone.
The linear regression correlation coefficient (R^2) values for all substances further confirmed that there is no found inner filter effect due to these values are greater than 0.95. Moreover, the following Stern–Volmer equations (13)–(15) were employed to determine the KSV, Kq, and n values (Table 4). The KSV findings were measured from the slope to intercept ratio of the linear regression plot of F0/F vs. [Q] by the SV method I (Figure S22). […]

Escherichia coli = assay: Agar disc diffusion, strain A; format: cell-based; set-up: (inhibition %): concentration or dose not given beside the values; details: for (inhibition %): (T–C)/T×100; for diameter of the clear zone inhibition: control (DMSO) = 6 mm
Protocol: as §1, §2, §3

## Oc1ccccc1N=Cc1ccc(N2CCOCC2)cc1 [(HL), 2-(4-morpholinobenzylideneamino)phenol]
Mucor indicus
  (inhibition %): 45%
  diameter of the clear zone inhibition: 11 mm
Aspergillus niger
  (inhibition %): 40%
  diameter of the clear zone inhibition: 10 mm
[1]
  Scatchard analysis KSA: 23194 M⁻¹
  Scatchard analysis n: 1.096
  Kass (DNA), SV method II: 9606 M⁻¹
  KSV (DNA), SV method I: 11636 M⁻¹
  Kapp: 5.829e+06 M⁻¹
  Kq (DNA), SV method I: 1.1636e+12 M⁻¹ s⁻¹
  LWB method KLB: 6985 M⁻¹
  P (DNA), ratio of fluorescence quantum efficiency: 0.0900
  n (DNA), SV method II: 0.973
  ∆Gb° (DNA), SV method II: −22.720 kJM^−1
Escherichia coli
  (inhibition %): 33%
  diameter of the clear zone inhibition: 09 mm

## [Cu+2].[O-]c1ccccc1N=Cc1ccc(N2CCOCC2)cc1.[O-]c1ccccc1N=Cc1ccc(N2CCOCC2)cc1.c1ccc(-c2ccccn2)nc1 [(1a), [Cu(L)2(bpy)]]
Mucor indicus
  (inhibition %): 50%
  diameter of the clear zone inhibition: 12 mm
Aspergillus niger
  (inhibition %): 45%
  diameter of the clear zone inhibition: 11 mm
[1]
  Scatchard analysis KSA: 33151 M⁻¹
  Scatchard analysis n: 1.033
  Kass (DNA), SV method II: 50564 M⁻¹
  KSV (DNA), SV method I: 52474 M⁻¹
  Kapp: 9.894e+06 M⁻¹
  Kq (DNA), SV method I: 5.2474e+12 M⁻¹ s⁻¹
  LWB method KLB: 18846 M⁻¹
  P (DNA), ratio of fluorescence quantum efficiency: 0.2000
  n (DNA), SV method II: 1.168
  ∆Gb° (DNA), SV method II: −26.835 kJM^−1
Escherichia coli
  (inhibition %): 54%
  diameter of the clear zone inhibition: 13 mm

## [O-]c1ccccc1N=Cc1ccc(N2CCOCC2)cc1.[O-]c1ccccc1N=Cc1ccc(N2CCOCC2)cc1.[Zn+2].c1ccc(-c2ccccn2)nc1 [(2a), [Zn(L)2(bpy)]]
Mucor indicus
  (inhibition %): 60%
  diameter of the clear zone inhibition: 15 mm
Aspergillus niger
  (inhibition %): 33%
  diameter of the clear zone inhibition: 09 mm
[1]
  Scatchard analysis KSA: 30190 M⁻¹
  Scatchard analysis n: 0.971
  Kass (DNA), SV method II: 17368 M⁻¹
  KSV (DNA), SV method I: 32694 M⁻¹
  Kapp: 6.569e+06 M⁻¹
  Kq (DNA), SV method I: 3.2694e+12 M⁻¹ s⁻¹
  LWB method KLB: 15630 M⁻¹
  P (DNA), ratio of fluorescence quantum efficiency: 0.1832
  n (DNA), SV method II: 1.055
  ∆Gb° (DNA), SV method II: −24.187 kJM^−1
Escherichia coli
  (inhibition %): 50%
  diameter of the clear zone inhibition: 12 mm
